# In patent US11133139B2, “Use of 1-chloro-2,3,3,3-tetrafluoropropene for isolating or extinguishing electric arcs” (Arkema France, priority 2018, dated 2021):
# Tests used:
# [1] = Dielectric strength measurement in a homogeneous field, relative to SF6; assay type: physicochemical
# Description: The results are as follows, expressed in a relative manner as percentage of the dielectric strength of the reference gas SF6: • HCFO-1224yd(Z): 178%.
# Its dielectric strength values (with an interelectrode distance of 12 mm) is then as follows, still with respect to SF6: • HCFO-1224yd(Z) at 17° C.: 159%.
# [2] = prior art statement; cited from earlier work
# [3] = prior art statement; cited from earlier work; remark: listed apart in the source
# [4] = Toxicity (statement, no method)
# [5] = Flammability, thermal stability, saturated vapor pressure / condensation; assay type: physicochemical
smiles,measurement,setting,value
"O=C=O [CO2, carbon dioxide, reference compound]",dielectric strength as % of that of SF6,"[1]; −15° C., 1.14 bar",51%
FC(F)(F)I [trifluoroiodomethane],toxicity (background),[2],"category-3 carcinogenic, mutagenic and reprotoxic substances"
"FS(F)(F)(F)(F)F [SF6, sulfur hexafluoride]",toxicity (background),[2],nontoxic to man and animals
same,flammability (background),[3],nonflammable
"FC(=CCl)C(F)(F)F [HCFO-1224yd(Z), 1-chloro-2,3,3,3-tetrafluoropropene]",dielectric strength as percentage of the dielectric strength of the reference gas SF6,"[1]; 20° C., 1.3 bar, homogeneous field, interelectrode distance 12 mm",178%
same,dielectric strength with respect to SF6,"[1]; pure state, 17° C., 1.14 bar, interelectrode distance 12 mm",159%
same,toxicity,[4],very low level of toxicity
same,flammability,[5],nonflammable
same,thermal stability,[5],thermally stable
same,minimum temperature of use in the pure state without condensation,[5]; pressure of 1.14 bar,17 °C
same,saturated pressure,[5]; −15° C.,0.29 bar
